Results on 17 compounds are retold here after patent US10781211B2, “Spirocycle compounds and methods of making and using same” (Lundbeck La Jolla Research Center, Inc., priority 2016, dated 2020).

pIC50: −log10 of the molar value.

Experiment [1] deals with T1, MAGL (Mus musculus (Mouse), UniProt O35678). The experiment is described as follows: In vitro competitive activity-based protein profiling (mouse brain membrane proteome), MAGL band. The format is biochemical. The note with it: for inhibition at 1 µM: read-out: MAGL % Inh 1 μM (mouse). On the procedure:
(§1) In Vitro Competitive Activity-Based Protein Profiling.
Proteomes (mouse brain membrane fraction or cell lysates) (50 μL, 1.0 mg/mL total protein concentration) were preincubated with varying concentrations of inhibitors at 37° C. After 30 min, FP-Rh (1.0 μL, 50 μM in DMSO) was added and the mixture was incubated for another 30 min at 37° C. Reactions were quenched with SDS loading buffer (50 μL-4X) and run on SDS-PAGE.

For experiment [2], the target named is T2, FAAH (Mus musculus (Mouse), UniProt O08914). Nature of the experiment: In vitro competitive activity-based protein profiling (mouse brain membrane proteome), FAAH band. Format: biochemical. To be noted: for inhibition at 1 µM: read-out: FAAH % Inh 1 μM (mouse). On the procedure: as §1
(§2) Proteomes (mouse brain membrane fraction or cell lysates) (50 μL, 1.0 mg/mL total protein concentration) were preincubated with varying concentrations of inhibitors at 37° C. After 30 min, FP-Rh (1.0 μL, 50 μM in DMSO) was added and the mixture was incubated for another 30 min at 37° C. Reactions were quenched with SDS loading buffer (50 μL-4X) and run on SDS-PAGE. Following gel imaging, serine hydrolase activity was determined by measuring fluorescent intensity of gel bands corresponding to MAGL, ABHD6 and FAAH using ImageJ 1.43 u software.

Experiment [3] has as its target T1, MAGL. The experiment is described as follows: Mouse brain proteomes from inhibitor treated mice (oral gavage, sacrifice 4 h after administration, ABPP analysis). The note with it: 5 mg/kg oral gavage. Format: in vivo. In a few lines: (§3)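 Compounds were given by oral gavage to wild-type C57Bl/6J mice in a vehicle such as PEG400/Ethanol/PBS (7/2/1). Animals were sacrificed 4 h after dosing, and brain proteomes were prepared and analyzed by established ABPP methods. Values are % inhibition at 5 mg/kg.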

The target of experiment [4] is T2, FAAH. The experiment is described as follows: Mouse brain proteomes from inhibitor treated mice (oral gavage, sacrifice 4 h after administration, ABPP analysis), FAAH. The format is in vivo. The note with it: 5 mg/kg oral gavage. In a few lines:
as §3

Experiment [5] has as its target T3, ABHD6 (Mus musculus (Mouse), UniProt Q8R2Y0). Nature of the experiment: Mouse brain proteomes from inhibitor treated mice (oral gavage, sacrifice 4 h after administration, ABPP analysis), ABHD6. The format is in vivo. The note with it: 5 mg/kg oral gavage. In outline: as §3
Experiment [6] has as its target T3, ABHD6. Nature of the experiment: In vitro competitive activity-based protein profiling (mouse brain membrane proteome), ABHD6 band. Format: biochemical. To be noted: read-out: ABHD6 % Inh 1 μM (mouse). On the procedure:
as §1, §2

Experiment [7] addresses MAGL (Homo sapiens (Human), UniProt Q99685). The experiment is described as follows: In vitro competitive activity-based protein profiling (human prefrontal cortex or cell membrane fractions; hMAGL expressed in HEK293T cells). The format is biochemical. The note with it: human proteome. On the procedure:
In Vitro Competitive Activity-Based Protein Profiling (Human).
Proteomes (human prefrontal cortex or cell membrane fractions) (50 μL, 1.0-2.0 mg/mL total protein concentration) were preincubated with varying concentrations of inhibitors at 37° C. After 30 min, FP-Rh or JW912 (1.0 μL, 50 μM in DMSO) was added and the mixture was incubated for another 30 min at room temperature. Reactions were quenched with SDS loading buffer (15 μL-4X) and run on SDS-PAGE.
Recombinant Expression of Human MAGL in HEK293T Cells.
Cell lysates were diluted with mock proteomes for use in competitive ABPP experiments.

T3 sequence (Q8R2Y0 whole entry): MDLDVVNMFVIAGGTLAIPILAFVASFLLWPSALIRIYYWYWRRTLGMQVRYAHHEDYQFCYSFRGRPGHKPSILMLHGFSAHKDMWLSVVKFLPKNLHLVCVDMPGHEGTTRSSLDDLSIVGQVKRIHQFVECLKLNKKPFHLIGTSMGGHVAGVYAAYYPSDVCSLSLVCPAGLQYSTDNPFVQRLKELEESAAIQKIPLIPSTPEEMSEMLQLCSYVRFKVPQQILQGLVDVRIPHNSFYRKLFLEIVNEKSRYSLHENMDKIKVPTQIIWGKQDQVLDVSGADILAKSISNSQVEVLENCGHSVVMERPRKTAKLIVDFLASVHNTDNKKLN
T2 sequence (O08914 whole entry): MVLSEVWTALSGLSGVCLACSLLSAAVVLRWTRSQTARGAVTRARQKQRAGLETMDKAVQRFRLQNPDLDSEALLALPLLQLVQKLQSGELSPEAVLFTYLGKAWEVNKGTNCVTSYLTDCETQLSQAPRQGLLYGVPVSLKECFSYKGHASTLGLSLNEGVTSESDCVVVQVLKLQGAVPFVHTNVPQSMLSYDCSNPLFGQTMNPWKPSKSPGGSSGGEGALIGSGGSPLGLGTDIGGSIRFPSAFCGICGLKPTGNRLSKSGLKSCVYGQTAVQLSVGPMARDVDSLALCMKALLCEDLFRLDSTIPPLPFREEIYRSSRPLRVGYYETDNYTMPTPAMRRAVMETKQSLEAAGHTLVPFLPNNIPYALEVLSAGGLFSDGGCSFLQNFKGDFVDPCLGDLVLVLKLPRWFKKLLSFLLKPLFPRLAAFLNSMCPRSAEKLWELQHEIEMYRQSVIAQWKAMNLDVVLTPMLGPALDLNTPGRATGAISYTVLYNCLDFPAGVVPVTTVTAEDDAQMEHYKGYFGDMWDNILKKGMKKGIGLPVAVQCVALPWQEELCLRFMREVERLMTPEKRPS
T1 sequence (O35678 whole entry): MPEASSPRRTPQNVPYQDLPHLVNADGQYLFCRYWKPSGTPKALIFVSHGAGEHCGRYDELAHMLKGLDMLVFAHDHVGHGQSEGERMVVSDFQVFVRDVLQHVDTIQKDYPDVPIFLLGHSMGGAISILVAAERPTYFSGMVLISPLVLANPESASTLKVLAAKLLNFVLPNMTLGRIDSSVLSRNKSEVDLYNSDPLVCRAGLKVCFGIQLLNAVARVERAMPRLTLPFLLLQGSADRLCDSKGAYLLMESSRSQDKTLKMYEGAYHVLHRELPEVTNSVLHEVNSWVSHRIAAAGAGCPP
MAGL (Homo sapiens (Human), UniProt Q99685), sequence (Q99685 whole entry): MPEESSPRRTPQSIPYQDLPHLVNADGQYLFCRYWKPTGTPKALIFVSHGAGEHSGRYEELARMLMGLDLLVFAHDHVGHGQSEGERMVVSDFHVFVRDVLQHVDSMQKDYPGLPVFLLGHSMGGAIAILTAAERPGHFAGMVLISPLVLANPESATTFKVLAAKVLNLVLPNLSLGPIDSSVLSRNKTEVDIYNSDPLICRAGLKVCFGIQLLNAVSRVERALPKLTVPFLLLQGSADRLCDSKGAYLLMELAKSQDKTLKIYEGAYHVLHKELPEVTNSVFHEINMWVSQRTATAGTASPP

As for `CC(=O)N1CCCc2cccc(CN3CCC4(CCN(C(=O)OC(C(F)(F)F)C(F)(F)F)CC4)C3)c21` [Example 70, 1,1,1,3,3,3-Hexafluoropropan-2-yl 2-((1-acetyl-1,2,3,4-tetrahydroquinolin-8-yl)methyl)-2,8-diazaspiro[4.5]decane-8-carboxylate], the negative logarithm of the IC50 (pIC50) at MAGL [1] was > 7.00; on FAAH [2] it was < 6.00. Besides, the “MAGL % Inh 5 mg/kg (mouse)” value on MAGL [3] is reported as “### (### is ≥ 75%)”. The “FAAH % Inh 5 mg/kg (mouse)” value on FAAH [4] is reported as “# (# is < 25%)”. Further, the “ABHD6 % Inh 5 mg/kg (mouse)” value on ABHD6 [5] was “### (### is ≥ 75%)”.
Regarding `O=C(O)[C@@H]1CCCN(c2cc(C(F)(F)F)ccc2CN2CCCC23CCN(C(=O)OC(C(F)(F)F)C(F)(F)F)CC3)C1` [Example 214], the “MAGL % Inh 5 mg/kg (mouse)” value at MAGL [3] is reported as “### (### is ≥ 75%)”. Moreover, at FAAH [4], the “FAAH % Inh 5 mg/kg (mouse)” value is recorded as “# (# is < 25%)”. For the same compound, on ABHD6 [5], the “ABHD6 % Inh 5 mg/kg (mouse)” value is given as “# (# is < 25%)”.
In the case of `O=C(O)[C@H]1CCCN(c2cc(C(F)(F)F)ccc2CN2CCCC23CCN(C(=O)OC(C(F)(F)F)C(F)(F)F)CC3)C1` [Example 217], the “MAGL % Inh 5 mg/kg (mouse)” value on MAGL [3] is “### (### is ≥ 75%)”. In addition, on FAAH [4], the “FAAH % Inh 5 mg/kg (mouse)” value is reported as “# (# is < 25%)”. For the same compound, the “ABHD6 % Inh 5 mg/kg (mouse)” value at ABHD6 [5] was “# (# is < 25%)”.
As to `CC1(C(=O)O)CCCN(c2cc(CN3CCCC34CCN(C(=O)OC(C(F)(F)F)C(F)(F)F)CC4)cc(C(F)(F)F)c2)C1` (stereo not drawn) [Example 221], the “MAGL % Inh 5 mg/kg (mouse)” value on MAGL [3] is listed as “### (### is ≥ 75%)”. The “FAAH % Inh 5 mg/kg (mouse)” value on FAAH [4] is “# (# is < 25%)”. Also, the “ABHD6 % Inh 5 mg/kg (mouse)” value on ABHD6 [5] was “# (# is < 25%)”.
In the case of `O=C(O)C1CCCCN1c1cc(CN2CCCC23CCN(C(=O)OC(C(F)(F)F)C(F)(F)F)CC3)cc(C(F)(F)F)c1` (stereo not drawn) [Example 226], the inhibition at 1 µM on MAGL [1] was > 75%; on ABHD6 [6], < 25%; at FAAH [2], < 25%. At MAGL [7], the pIC50 was > 7.00. Also, the “MAGL % Inh 5 mg/kg (mouse)” value on MAGL [3] is “### (### is ≥ 75%)”. The “FAAH % Inh 5 mg/kg (mouse)” value on FAAH [4] is on record as “# (# is < 25%)”. Further, at ABHD6 [5], the “ABHD6 % Inh 5 mg/kg (mouse)” value is reported as “# (# is < 25%)”.
For `CC1(C(=O)O)CCN(c2cc(CN3CCCC34CCN(C(=O)OC(C(F)(F)F)C(F)(F)F)CC4)cc(C(F)(F)F)c2)C1` (stereo not drawn) [Example 231], the figures for the inhibition at 1 µM on MAGL [1], on ABHD6 [6] and on FAAH [2] were > 75%, < 25% and < 25%, respectively. The negative logarithm of the IC50 (pIC50) on MAGL [7] is > 7.00.
Consider `O=C(O)C1CCN(c2cc(F)ccc2CN2CCCC23CCN(C(=O)OC(C(F)(F)F)C(F)(F)F)CC3)CC1` [Example 235], for which the inhibition at 1 µM at ABHD6 [6] and on FAAH [2] was < 25% in each case.
Consider `O=C(O)C1CCN(c2cc(F)cc(CN3CCCC34CCN(C(=O)OC(C(F)(F)F)C(F)(F)F)CC4)c2)CC1` [Example 236], for which the “MAGL % Inh 5 mg/kg (mouse)” value at MAGL [3] is “### (### is ≥ 75%)”. Further, the “FAAH % Inh 5 mg/kg (mouse)” value on FAAH [4] is given as “# (# is < 25%)”. For the same compound, the “ABHD6 % Inh 5 mg/kg (mouse)” value on ABHD6 [5] is “# (# is < 25%)”.
Take `O=C(O)C1CCN(Cc2cc(C(F)(F)F)ccc2CN2CCCC23CCN(C(=O)OC(C(F)(F)F)C(F)(F)F)CC3)CC1` [Example 238]: on MAGL [3], the “MAGL % Inh 5 mg/kg (mouse)” value is “### (### is ≥ 75%)”. The “FAAH % Inh 5 mg/kg (mouse)” value at FAAH [4] is on record as “# (# is < 25%)”. Further, the “ABHD6 % Inh 5 mg/kg (mouse)” value on ABHD6 [5] was “# (# is < 25%)”.
For `O=C(O)C1CCN(c2cc(S(F)(F)(F)(F)F)ccc2CN2CCCC23CCN(C(=O)OC(C(F)(F)F)C(F)(F)F)CC3)CC1` [Example 240], the “MAGL % Inh 5 mg/kg (mouse)” value at MAGL [3] is recorded as “### (### is ≥ 75%)”. Moreover, the “FAAH % Inh 5 mg/kg (mouse)” value at FAAH [4] is “# (# is < 25%)”. Further, the “ABHD6 % Inh 5 mg/kg (mouse)” value on ABHD6 [5] is listed as “# (# is < 25%)”.
For `O=C(O)C1CCN(Cc2cc(CN3CCCC34CCN(C(=O)OC(C(F)(F)F)C(F)(F)F)CC4)cc(C(F)(F)F)c2)CC1` [Example 244], on MAGL [3], the “MAGL % Inh 5 mg/kg (mouse)” value is “### (### is ≥ 75%)”. Moreover, the “FAAH % Inh 5 mg/kg (mouse)” value at FAAH [4] is reported as “# (# is < 25%)”. For the same compound, the “ABHD6 % Inh 5 mg/kg (mouse)” value at ABHD6 [5] is reported as “# (# is < 25%)”.
For `O=C(O)C1CCN(c2cc(OC(F)(F)F)ccc2CN2CCCC23CCN(C(=O)OC(C(F)(F)F)C(F)(F)F)CC3)CC1` [Example 248], the “MAGL % Inh 5 mg/kg (mouse)” value at MAGL [3] is “### (### is ≥ 75%)”. Moreover, on FAAH [4], the “FAAH % Inh 5 mg/kg (mouse)” value is on record as “# (# is < 25%)”. Also, the “ABHD6 % Inh 5 mg/kg (mouse)” value on ABHD6 [5] is on record as “# (# is < 25%)”.
With `CC1(C(=O)O)CN(c2cc(C(F)(F)F)ccc2CN2CCC3(CCN(C(=O)OC(C(F)(F)F)C(F)(F)F)CC3)C2)CCO1` (stereo not drawn) [Example 256], the “MAGL % Inh 5 mg/kg (mouse)” value at MAGL [3] is “# (# is < 25%)”. Also, the “FAAH % Inh 5 mg/kg (mouse)” value at FAAH [4] is “# (# is < 25%)”. Also, at ABHD6 [5], the “ABHD6 % Inh 5 mg/kg (mouse)” value is listed as “# (# is < 25%)”.
Consider `CS(=O)(=O)C1CCN(c2cc(C(F)(F)F)ccc2CN2CCCC23CCN(C(=O)OC(C(F)(F)F)C(F)(F)F)CC3)CC1` [Example 267], for which, at MAGL [3], the “MAGL % Inh 5 mg/kg (mouse)” value is “# (# is < 25%)”. For the same compound, the “FAAH % Inh 5 mg/kg (mouse)” value on FAAH [4] is given as “# (# is < 25%)”. The “ABHD6 % Inh 5 mg/kg (mouse)” value at ABHD6 [5] is recorded as “# (# is < 25%)”.
On to `O=C(O)C1CCN(Cc2cc(Cl)cc(CN3CCCC34CCN(C(=O)OC(C(F)(F)F)C(F)(F)F)CC4)c2)C1` (stereo not drawn) [Example 272], for which, on MAGL [3], the “MAGL % Inh 5 mg/kg (mouse)” value is recorded as “### (### is ≥ 75%)”. Moreover, the “FAAH % Inh 5 mg/kg (mouse)” value on FAAH [4] is “# (# is < 25%)”. At ABHD6 [5], the “ABHD6 % Inh 5 mg/kg (mouse)” value was “# (# is < 25%)”.
For the compound `O=C(O)[C@H]1CCCCN1c1cc(CN2CCCC23CCN(C(=O)OC(C(F)(F)F)C(F)(F)F)CC3)cc(C(F)(F)F)c1` [Example 274], the “MAGL % Inh 5 mg/kg (mouse)” value on MAGL [3] is recorded as “### (### is ≥ 75%)”. Moreover, the “FAAH % Inh 5 mg/kg (mouse)” value at FAAH [4] was “# (# is < 25%)”. For the same compound, the “ABHD6 % Inh 5 mg/kg (mouse)” value at ABHD6 [5] was “# (# is < 25%)”.
In the case of `O=C(O)C1CCN(C(=O)c2cc(C(F)(F)F)ccc2CN2CCCC23CCN(C(=O)OC(C(F)(F)F)C(F)(F)F)CC3)CC1` [Example 281], the “MAGL % Inh 5 mg/kg (mouse)” value at MAGL [3] was “# (# is < 25%)”. Also, the “FAAH % Inh 5 mg/kg (mouse)” value at FAAH [4] is listed as “# (# is < 25%)”. Besides, at ABHD6 [5], the “ABHD6 % Inh 5 mg/kg (mouse)” value is “# (# is < 25%)”.

The pIC50 is the negative decadic logarithm of the IC50, by convention in mol/L. A low value points to a high IC50.
